In brackets after ≈: the same amount, converted by molar mass.
What was measured:
MIA PaCa-2 cells = experiment: Cell viability assay (MTT) in MIA PaCa-2 cells; format: cell-based; settings: Homo sapiens, antiproliferative activity, 72 h
Outline: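 MIA PaCa-2 cells exposed 72 h at 37° C to 2-fold serial compound dilutions from 100 μM final, 0.5% DMSO, in triplicate. Viability by MTT (3 h), formazan read at 570 nm minus 650 nm; EC50 from curve fit.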

[1] = tested on: MCF10A cells (normal human mammary cells); experiment: Cell viability assay (MTT) in MCF10A cells; format: cell-based; settings: MCF-10A, 72 h
Description: MCF10A cells are maintained in minimum essential medium (MEM) (Invitrogen 11095) supplemented with 10% FBS (Invitrogen 16000), 1% 10× non-essential amino acids (NEAA) (Invitrogen 11140), 1% Penicillin/Streptomycin (Invitrogen 15140), 1% GlutaMAX (Invitrogen 35050-061), 20 ng/mL EGF, […] hydrocortisone, 100 ng/mL cholera toxin, 10 μg/mL insulin.
Cells were plated in 96-well plates at 25×10^4 cells/ml. After 24 hours, compounds were added at 9, 3× dilutions in triplicate from 100 uM final concentration in the appropriate growth media. Plates were incubated for 72 hours at 37° C. in a 5% CO2/95% air humidified atmosphere after which time the media was removed and MTT was added in RPMI phenol red free media. The MTT was removed after 3 hours and formazan crystals were solubilized with 200 μL of isopropanol. Plates were read on a Molecular Devices SpectraMax i3 spectrophotometer at 570 nm for formazan and 690 nm for background subtraction. EC50 values were calculated by fitting the data in GraphPad Prism software.

[2] = Plasma stability assay, mouse plasma; format: in vitro ADME; settings: 37° C.
Description: (§1) The plasma stability assay was performed in triplicate by incubating a compound in normal mouse and human plasma at 37° C. At 0, 1, 3, 6, and 24 h, aliquots of the plasma mixture were taken and quenched with 3 volumes of acetonitrile containing an appropriate internal standard. The samples were then vortexed and centrifuged at 14,000 rpm for 5 min. The supernatants were collected and analyzed by LC-MS/MS to determine the remaining percentage at various time points.
(§2) Quantification and analysis of compounds in biological samples were carried out on an AB Sciex QTrap 5500 mass spectrometer coupled with an Agilent 1260 Infinity HPLC. The chromatographic separation of compounds was achieved using a Phenomenex Kinetex C18 column (50×2.1 mm, 2.6 μm), and MS/MS analysis was conducted using an ESI ion source with MRM detection. The MS/MS detection parameters including declustering potential (DP), entrance potential (EP), collision energy (CE), and collision cell exit potential (CXP) were optimized for each compound.

[3] = Plasma stability assay, human plasma; format: in vitro ADME; settings: 37° C.
Description: as §1, §2

[4] = Microsomal stability assay, mouse liver microsomes; format: in vitro ADME; settings: pH 7.4; mouse liver microsomes 0.5 mg/mL, 1 mM NADPH, 1 μM compound; read-out: Microsomal Stability t1/2 Mouse
Description: (§3) The in vitro microsomal stability assay was conducted in triplicate in mouse and human liver microsomal systems. In a typical incubation, a compound (typically 1 μM final concentration) was spiked into the reaction mixture containing 0.5 mg/mL of liver microsomal protein and 1 mM of NADPH in 0.1 M potassium phosphate buffer (pH 7.4) at 37° C. At various time points, 1 volume of reaction aliquot was taken and quenched with 3 volumes of acetonitrile with an appropriate internal standard. The samples were then vortexed and centrifuged at 14,000 rpm for 5 min. The supernatants were collected and analyzed by LC-MS/MS to determine the in vitro metabolic half-life (t1/2) and intrinsic clearance (CLint). Verapamil was used as a positive control.
as §2

[5] = Microsomal stability assay, human liver microsomes; format: in vitro ADME; settings: pH 7.4; human liver microsomes 0.5 mg/mL, 1 mM NADPH, 1 μM compound; read-out: Microsomal Stability t1/2 Human
Description: as §3, §2

[6] = Caco-2 permeability assay; format: in vitro ADME; settings: human, pH 7.4; for Papp A→B at 80 min: apical to basolateral; for Papp B→A at 80 min: basolateral to apical
Description: Cell Culture. The human colon adenocarcinoma cell line Caco-2 was purchased from ATCC (American Type Culture Collection, Manassas, Va.), and was cultured in a humidified atmosphere of 5% CO2 at 37° C. Caco-2 cells were cultured in DMEM with 10% FBS, 1% NEAA, 1% GlutaMax and 1% penicillin and streptomycin solution. The culture medium was changed every other day during cell growth and differentiation. On achieving 80-90% confluence, the cells were rinsed with pre-warm DPBS (pH 7.4) and split using trypsin. The cells were then seeded on membranes of Millipore Millicell-24 cell culture device. The transepithelial electrical resistance (TEER) were assessed to reflect membrane integrity using a Millicells® ERS-2 (Millipore, USA). The Caco-2 cell monolayers were used for transport experiments on day 21 post-seeding with TEER values >500 Ω·cm2. Bidirectional Transport Experiments. Before the transport experiments, the cell monolayer was washed three times with HBSS. Then, the plates were incubated in fresh permeability assay buffer (HBSS containing 10 mM glucose and 20 mM HEPES, pH 7.4) at 37° C. The experiments were conducted by spiking test compounds to either the apical (AP, 0.4 mL) or basolateral side (BL, 0.8 mL), while the receiving chamber contained the corresponding volume of pre-warmed permeability assay buffer. Every experiment was repeated in duplicate, and the plates were incubated in an orbital shaker at 37° C., 50 rpm/min. To assess the drug transport, at the incubation time of 20, 40, 60 and 80 min, aliquot was removed and was immediately replenished with an equal volume of permeability assay buffer. The samples were then subjected to LC/MS/MS analysis. The apparent permeability coefficient was indicated by the absorption rate constant Papp. It could be calculated as PBA (measured in BL to AP direction) or PAB (measured in AP to BL direction), using the equation of Papp=(dQ/dt)/(A×C0). dQ/dt is the rate at which the compound appears in the receiver chamber (nmol/s), A is the surface area of the filter membrane (0.7 cm2) and C0 is the initial concentration in the donor chamber (μM). Efflux ratio (ER) was calculated by the equation of ER=PBA/PAB, where PBA is the Papp value measured in BL to AP direction, and PAB is the Papp value measured in AP to BL direction.

[7] = Thermodynamic solubility assay; format: physicochemical; settings: aqueous buffer, thermodynamic from solid, DPBS pH=7.4, 48 h, ambient temperature
Description: Briefly, a saturated solution was made by adding DPBS to the solid compound. The mixture was shaken at 200 rpm for 48 h in a MaxQ 6000 orbital shaker at ambient temperature to allow equilibrium between the solid and dissolved compound. The suspension was then filtered through a 0.45 μm PVDF syringe filter and the filtrate was collected for analysis using UV spectrometry (SpectraMax M5e, Molecular Devices) at λ=240 nm.

Row | SMILES | EC50 (MIA PaCa-2 cells) [µM] | EC50 [1] [µM] | Plasma Stability (% remaining, 6 h/24 h) Mouse ([2]; 24 h) | Plasma Stability (% remaining, 6 h/24 h) Human ([3]; 24 h) | half-life at 1 μM [4] [h] | half-life at 1 μM [5] [h] | Papp A→B at 80 min [6] [×10⁻⁶ cm/s] | Papp B→A at 80 min [6] [×10⁻⁶ cm/s] | Plasma Stability (% remaining, 6 h/24 h) Mouse ([2]; 6 h) [%] | Plasma Stability (% remaining, 6 h/24 h) Human ([3]; 6 h) [%] | solubility at 48 h [7] [µM]
1 | CNC(=O)c1cc(Cn2nc(C)c(NC(=O)c3ccc(COc4ccc(C(F)(F)F)cc4)cc3)c2C)ccn1 [Compound E2a, 4-((3,5-Dimethyl-4-(4-((4-(trifluoromethyl)phenoxy)methyl)benzamido)-1H-pyrazol-1-yl)methyl)-N-methylpicolinamide] | 0.85 | 8.3 | —/91% | —/98% | 1.07 | 1.87 | 5.02 | 5.69 |  |  | 
2 | CNC(=O)c1cccc(Cn2nc(C)c(NC(=O)c3ccc(COc4ccc(C(F)(F)F)cc4C)cc3)c2C)n1 [Compound E1b, 6-((3,5-Dimethyl-4-(4-((2-methyl-4-(trifluoromethyl)phenoxy)methyl)benzamido)-1H-pyrazol-1-yl)methyl)-N-methylpicolinamide] | 6.3 |  | —/96% | —/100% | 1.25 | 0.783 | 3.58 | 7.17 |  |  | 
3 | CNC(=O)c1ccnc(Cn2nc(C)c(NC(=O)c3ccc(COc4ccc(C(F)(F)F)cc4)cc3)c2C)c1 [Compound E4a, 2-((3,5-Dimethyl-4-(4-((4-(trifluoromethyl)phenoxy)methyl)benzamido)-1H-pyrazol-1-yl)methyl)-N-methylisonicotinamide] | 13 |  | —/98% | —/97% | 2.52 | 1.08 |  |  |  |  | 
4 | CNC(=O)c1cccc(Cn2nc(C)c(NC(=O)c3ccc(COc4ccc(C(F)(F)F)cc4C)cc3)c2C)c1 [Compound D10, 3-((3,5-Dimethyl-4-(4-((2-methyl-4-(trifluoromethyl)phenoxy)-methyl)benzamido)-1H-pyrazol-1-yl)methyl)-N-methylbenzamide] | 0.62 | 4.8 | 93% | 100% | 0.883 | 0.883 | 3.72 | 11.2 | 88 | 98 | 166 ± 2 (≈ 91.4 µg/mL)
5 | CNC(=O)c1ccnc(Cn2nc(C)c(NC(=O)c3ccc(COc4ccc(C(F)(F)F)cc4C)cc3)c2C)c1 [Compound E4b, 2-((3,5-Dimethyl-4-(4-((2-methyl-4-(trifluoromethyl)phenoxy)methyl)benzamido)-1H-pyrazol-1-yl)methyl)-N-methylisonicotinamide] | 4.9 |  | —/99% | —/98% | 2.1 | 0.95 |  |  |  |  | 
6 | CNC(=O)c1cncc(Cn2nc(C)c(NC(=O)c3ccc(COc4ccc(C(F)(F)F)cc4C)cc3)c2C)c1 [Compound E3b, 5-((3,5-Dimethyl-4-(4-((2-methyl-4-(trifluoromethyl)phenoxy)methyl)benzamido)-1H-pyrazol-1-yl)methyl)-N-methylnicotinamide] | 7.6 |  | —/100% | —/98% | 2.32 | 1.23 |  |  |  |  | 
7 | CC(=O)Nc1cccc(Cn2nc(C)c(NC(=O)c3ccc(COc4ccc(C(F)(F)F)cc4C)cc3)c2C)c1 [Compound D12, N-(1-(3-Acetamidobenzyl)-3,5-dimethyl-1H-pyrazol-4-yl)-4-((2-methyl-4-(trifluoromethyl)phenoxy)methyl)benzamide] | 1.1 | 6.6 | 0.1% | 95% | 0.162 | 0.233 |  |  | 1.6 | 92 | 
8 | CNC(=O)c1cccc(Cn2nc(C)c(NC(=O)c3ccc(COc4ccc(C(F)(F)F)cc4)cc3)c2C)n1 [Compound E1a, 6-((3,5-Dimethyl-4-(4-((4-(trifluoromethyl)phenoxy)methyl)-benzamido)-1H-pyrazol-1-yl)methyl)-N-methylpicolinamide] | 0.48 | 7.8 | —/99% | —/100% | 1.08 | 0.783 | 24.5 | 21 |  |  | 
9 | CC(=O)Nc1cccc(Cn2nc(C)c(NC(=O)c3ccc(COc4ccc(C(F)(F)F)cc4)cc3)c2C)c1 [Compound D11, N-(1-(3-Acetamidobenzyl)-3,5-dimethyl-1H-pyrazol-4-yl)-4-((4-(trifluoromethyl)phenoxy)methyl)benzamide] | 0.87 | 8.6 | 0.1% | 94% | 0.123 | 0.138 |  |  | 2.1 | 96 | 
10 | CNC(=O)c1cncc(Cn2nc(C)c(NC(=O)c3ccc(COc4ccc(C(F)(F)F)cc4)cc3)c2C)c1 [Compound E3a, 5-((3,5-Dimethyl-4-(4-((4-(trifluoromethyl)phenoxy)methyl)benzamido)-1H-pyrazol-1-yl)methyl)-N-methylnicotinamide] | 8.6 |  | —/100% | —/94% | 2.4 | 1.37 |  |  |  |  | 

— patent publication US10357477B2, “Anticancer compounds” (REGENTS OF THE UNIVERSITY OF MINNESOTA, priority 2016, dated 2019)
